Measured values from patent US20200352854A1, “DEVICES AND METHODS FOR PREVENTING AND INHIBITING PERIODONTAL DISEASE” (Fixed Focus LLC, priority 2019, published 2020).

Test: water solubility of complex carbohydrate agents
Type: physicochemical
Experimental: Specific solubilities are: dextran, 50 mg/ml; hydroxymethylcellulose, 10 mg/ml; cellulose, 0 mg/ml; oat beta glucan, 20 mg/ml.

Row | solubility [mg/mL] | Substance
1 | 10 | hydroxymethylcellulose
2 | 20 | oat beta glucan
